Experimental data from the supplement of paper PMC12370961.

Tests used:
Assay in all cases: differential drug sensitivity score (dDSS) relative to sarcoma reference cohort mean DSS (DSS units (0-100 scale difference)); higher = more selective sensitivity than reference sarcomas
Conditions in all cases: exposure time: 72 h; concentration range: 10-10000 nM
[1] = system: CDS-ZH001-2 (patient-derived CIC-DUX4 sarcoma tumoroid)
Protocol: (§1)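 Drug response profiling of patient-derived Ewing sarcoma and CIC::DUX4 sarcoma tumoroid models (or cells tested directly after isolation from the tumor, 'direct'). The DSS is the normalised AUC (0-100); dDSS is the sample DSS minus the mean DSS of a 34-sarcoma reference cohort profiled in the same lab.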

[2] = system: CDS-ZH001 (patient-derived CIC-DUX4 sarcoma tumoroid)
Protocol: as §1

[3] = system: CDS-ZH002 direct (CIC-DUX4 sarcoma cells right after isolation)
Protocol: as §1

[4] = system: CDS-ZH002 (patient-derived CIC-DUX4 sarcoma tumoroid)
Protocol: as §1

[5] = system: CDS-ZH003 (patient-derived CIC-DUX4 sarcoma tumoroid)
Protocol: as §1

[6] = system: ES-ZH001 (patient-derived Ewing sarcoma tumoroid)
Protocol: as §1

[7] = system: ES-ZH002 (patient-derived Ewing sarcoma tumoroid)
Protocol: as §1

[8] = system: ES-ZH004 (patient-derived Ewing sarcoma tumoroid)
Protocol: as §1

[9] = system: ES-ZH007 (patient-derived Ewing sarcoma tumoroid)
Protocol: as §1

[10] = system: ES-ZH008 (patient-derived Ewing sarcoma tumoroid)
Protocol: as §1

[11] = system: ES-ZH009 (patient-derived Ewing sarcoma tumoroid)
Protocol: as §1

[12] = system: ES-ZH016 direct (Ewing sarcoma cells right after isolation)
Protocol: as §1

[13] = system: ES-ZH016 (patient-derived Ewing sarcoma tumoroid)
Protocol: as §1

Structure (SMILES)	differential drug sensitivity score [1]	differential drug sensitivity score [2]	differential drug sensitivity score [3]	differential drug sensitivity score [4]	differential drug sensitivity score [5]	differential drug sensitivity score [6]	differential drug sensitivity score [7]	differential drug sensitivity score [8]	differential drug sensitivity score [9]	differential drug sensitivity score [10]	differential drug sensitivity score [11]	differential drug sensitivity score [12]	differential drug sensitivity score [13]
CC(C)CCN1c2nc(Nc3cc(F)c(O)c(F)c3)ncc2N(C)C(=O)C1C (stereo not given) [BI-D1870]	-0.8	1.3	-1.7	-2.3	4.1	2.9	3.1	3	0.6	5.6	8.6	7.3	2.7
COc1ccc(C(=O)CC2(O)C(=O)Nc3c(Cl)ccc(Cl)c32)cc1 (stereo not given) [YK-4-279]	1.9	0.2	-2	-3	-20.3	4.5	8.2	-3.2	0	-0.3	3.8	2.9	3.1
CC(=O)O[C@H]1C(=O)[C@@]2(C)[C@H]([C@H](OC(=O)c3ccccc3)[C@]3(O)C[C@H](OC(=O)[C@H](O)[C@@H](NC(=O)c4ccccc4)c4ccccc4)C(C)=C1C3(C)C)[C@]1(OC(C)=O)CO[C@@H]1C[C@@H]2O [Paclitaxel]	4.1	7.6	-5.6	-2.2	-8	24.6	23	8.9	16.2	15.7	19.6	14	16.3
O=c1cc(N2CCOCC2)oc2c(-c3cccc4c3sc3ccccc34)cccc12 [NU7441]	1.9	-4.3	1.5	-4	-4.3	0	8.5	-1.9	-4.3	-0.8	2.9	1.1	-3.9
CCNC(=O)C[C@@H]1N=C(c2ccc(Cl)cc2)c2cc(OC)ccc2-n2c(C)nnc21 [Molibresib]	-1	-1.2	-3.9	-5.5	-5.3	0.4	5.5	-0.4	-1.8	6.8	5.5	4.2	0.4
CCN(CC)CCCC(C)Nc1nc(C)cc(Nc2ccc3nc(C)cc(N)c3c2)n1 (stereo not given)	9.7	-0.8	2.8	1.1	-1	-1	0.7	1.1	0.4	-1	-0.9	-1	-1
CCN(CC)CCNC(=O)c1c(C)[nH]c(/C=C2\C(=O)Nc3ccc(F)cc32)c1C [Sunitinib]	3.9	3.2	-2	-1.4	-3.3	7.6	8.5	2.3	2.2	-0.8	1.7	6.4	0.7
Nc1nc2[nH]cnc2c(=S)[nH]1 [Thioguanine]	5.1	1	2.5	0.2	-4.2	15.5	17.1	12.4	1.2	10.4	9.6	3.7	-4.8
O=C(Nc1c[nH]nc1-c1nc2ccc(CN3CCOCC3)cc2[nH]1)NC1CC1 [AT9283]	7	-1.2	-0.7	-3.6	-2	24.4	10.8	4	6.1	18.4	24.5	14.2	10.8
COc1cccc(-c2cc(F)ccc2[C@H]2Cc3nc(N)nc(C)c3C(=O)N2)n1 [HSP-990]	0.3	1.4	-4	-9.2	1.3	3.8	8.8	-0.8	1.2	7.1	6	4.9	3.4
Cc1cnc(NC(=O)Nc2cc(Br)c(C)cc2OC[C@@H]2CNCCO2)cn1 [Rabusertib]	7.2	8.8	2.4	1.8	-4.9	6	10.7	1.2	8.8	12.5	6.1	5.6	8.7
O=NN(CCCl)C(=O)NCCCl [Carmustine]	-0.5	-1.3	-1.2	-1.2	-1.3	2.6	7.3	1.6	-1.3	1.4	-1.3	2.1	1.1
CN(C)C/C=C/C(=O)Nc1cc2c(Nc3ccc(F)c(Cl)c3)ncnc2cc1O[C@H]1CCOC1 [Afatinib]	-3.4	-4.6	-4.7	-4.9	-4.9	-3.9	-2	-0.3	-4.2	-1.4	-3	-2.4	-4.6
Cc1c(-c2c(-c3ccc(F)o3)sc3ncnc(O[C@H](Cc4ccccc4OCc4ccnn4CC(F)(F)F)C(=O)O)c23)ccc(OCCN2CCN(C)CC2)c1Cl	29.6	32.7	19.6	10.4	31.7	-11.5	9.2	12.2	28.5	8.1	11.6	14.5	7
Cn1nnc2c(C(N)=O)ncn2c1=O [Temozolomide]	3.5	3.6	1.1	1.4	7.1	3.2	2.1	-1.7	-1.3	-1.3	7	14.8	13.8
CO[C@@H](C)Cn1c(=O)n(C)c2cnc3ccc(-c4cncc(C(C)(C)O)c4)cc3c21 [Samotolisib]	0.9	2.3	4.5	-8.8	0.5	1	12.2	2.3	2.6	10.9	7.1	-2.7	6
CCS(=O)(=O)N1CCC([C@@H](C)n2c(C)c(C(=O)NCc3c(OC)cc(C)[nH]c3=O)c3ccccc32)CC1 [CPI169]	-0.4	-0.4	-0.4	-0.4	-0.3	-0.4	-0.4	-0.4	-0.4	-0.4	-0.3	3.3	-0.4
CCN(c1cc(-c2ccc(CN3CCOCC3)cc2)cc(C(=O)NCc2c(C)cc(C)[nH]c2=O)c1C)C1CCOCC1 [Tazemetostat]	-1.1	-0.8	-1.1	-0.9	-7	-1.1	-1.1	-1.1	-1.1	-1.1	1	-1.1	-0.7
NC(=O)/C(=C/n1cnc(-c2cc(C(F)(F)F)cc(C(F)(F)F)c2)n1)c1cncnc1 [Eltanexor]	8	0.5	-5.9	-5.7	-13.9	-3.8	5	14	0.4	16.8	-14.4	22	-5.7
CNC(=O)c1cc(Oc2ccc(NC(=O)Nc3ccc(Cl)c(C(F)(F)F)c3)cc2)ccn1 [Sorafenib]	-1	-0.5	-0.3	-1.2	-1.8	-0.8	-1.2	-1.2	-1.2	-1.2	0.2	-1.2	-1.2
O=P1(NCCCl)OCCCN1CCCl (stereo not given) [Ifosfamide]	-1	-1	-1	-1	-1	0.6	5.4	5.5	-1	1.6	-1	-1	-1
COc1cc(NS(C)(=O)=O)ccc1Nc1c2ccccc2nc2ccccc12 [Amsacrine]	3	-1.9	-4.1	1.6	-12.8	12.5	27.1	8.8	8.9	16.3	8.4	13.3	13.7
COc1ccc(C2=N[C@@H](c3ccc(Cl)cc3)[C@@H](c3ccc(Cl)cc3)N2C(=O)N2CCNC(=O)C2)c(OC(C)C)c1 [Nutlin-3]	8.4	-1.8	1	-1.3	3.6	-4.6	8	-4.6	-4.6	1.4	-4.4	14	3.3
Cc1ccc(NC(=O)c2ccc(CN3CCN(C)CC3)cc2)cc1Nc1nccc(-c2cccnc2)n1 [Imatinib]	-0.8	0.4	-1.3	-1.5	12.4	-2.9	3.2	0.7	-1.3	0.1	-3.3	1.6	-3.3
CN(Cc1cnc2nc(N)nc(N)c2n1)c1ccc(C(=O)N[C@@H](CCC(=O)O)C(=O)O)cc1 [Methotrexate]	-10.9	0	-10.4	-4.9	-14	11.6	-0.6	-9.9	-3.6	-6.2	21.6	-5.4	4.4
CS(=O)(=O)OCCCCOS(C)(=O)=O [Busulfan]	-0.8	-1.2	-1.2	-1.2	-1.2	3.9	5.9	2.9	-1.2	-0.1	-1.2	6.4	-1.1
C[C@@H]1CN(C(=O)c2ccc(NC(=O)c3cc(O[C@H](C)c4c(Cl)ccc(F)c4Cl)c(N)nn3)cc2)C[C@H](C)N1 [Ensartinib]	5.2	5	-1.9	-0.8	-1.2	4.7	15.2	4.3	4.2	13.9	-2.1	3.7	3.9
COc1cc(OC)c2c(=O)[nH]c(-c3cc(C)c(OCCO)c(C)c3)nc2c1 [Apabetalone]	-0.7	-0.6	-0.7	-0.7	3.6	-0.7	0.6	0.6	-0.7	3.2	0.5	-0.7	-0.7
Cc1sc2c(c1C)C(c1ccc(Cl)cc1)=N[C@@H](CC(=O)Nc1ccc(O)cc1)c1nnc(C)n1-2 [Birabresib]	1	-1.1	1.5	-11.1	-0.8	-5.6	0.3	-6.7	-4.1	5.9	11.9	11.1	-7.9
Nc1ncn([C@H]2C[C@H](O)[C@@H](CO)O2)c(=O)n1 [Decitabine]	1.7	0.1	2.2	-1.8	-7	5.8	21.4	6.4	5.1	5.7	1.3	13.3	4.4
